Experiments:
[1] = biological target: LSD1 (Homo sapiens, UniProt O60341); assay: Enzymatic inhibitory activity against LSD1; type: biochemical
[2] = system: HGC-27 cells; assay: Cell cycle assay; type: cell-based, human; details: HGC-27, 24 h
[3] = biological target: USP7 (Homo sapiens, UniProt Q93009); assay: Enzymatic inhibitory activity against USP7; type: biochemical
[4] = system: HGC-27 cells; assay: Annexin V-FITC/PI apoptosis analysis; type: cell-based, human
[5] = system: MGC-803 cells; assay: cells; details: Homo sapiens, MGC-803, 72 h, read-out: IC50 cell viability MGC-803
[6] = biological target: T1, USP28 in HGC-27 cells (Homo sapiens, UniProt Q96RU2); assay: Cellular thermal shift target engagement assay, HGC-27; type: cell-based; details: HGC-27, 0.75 μmol/L, 3 h, 60 °C
T1 sequence (Q96RU2 1-1077): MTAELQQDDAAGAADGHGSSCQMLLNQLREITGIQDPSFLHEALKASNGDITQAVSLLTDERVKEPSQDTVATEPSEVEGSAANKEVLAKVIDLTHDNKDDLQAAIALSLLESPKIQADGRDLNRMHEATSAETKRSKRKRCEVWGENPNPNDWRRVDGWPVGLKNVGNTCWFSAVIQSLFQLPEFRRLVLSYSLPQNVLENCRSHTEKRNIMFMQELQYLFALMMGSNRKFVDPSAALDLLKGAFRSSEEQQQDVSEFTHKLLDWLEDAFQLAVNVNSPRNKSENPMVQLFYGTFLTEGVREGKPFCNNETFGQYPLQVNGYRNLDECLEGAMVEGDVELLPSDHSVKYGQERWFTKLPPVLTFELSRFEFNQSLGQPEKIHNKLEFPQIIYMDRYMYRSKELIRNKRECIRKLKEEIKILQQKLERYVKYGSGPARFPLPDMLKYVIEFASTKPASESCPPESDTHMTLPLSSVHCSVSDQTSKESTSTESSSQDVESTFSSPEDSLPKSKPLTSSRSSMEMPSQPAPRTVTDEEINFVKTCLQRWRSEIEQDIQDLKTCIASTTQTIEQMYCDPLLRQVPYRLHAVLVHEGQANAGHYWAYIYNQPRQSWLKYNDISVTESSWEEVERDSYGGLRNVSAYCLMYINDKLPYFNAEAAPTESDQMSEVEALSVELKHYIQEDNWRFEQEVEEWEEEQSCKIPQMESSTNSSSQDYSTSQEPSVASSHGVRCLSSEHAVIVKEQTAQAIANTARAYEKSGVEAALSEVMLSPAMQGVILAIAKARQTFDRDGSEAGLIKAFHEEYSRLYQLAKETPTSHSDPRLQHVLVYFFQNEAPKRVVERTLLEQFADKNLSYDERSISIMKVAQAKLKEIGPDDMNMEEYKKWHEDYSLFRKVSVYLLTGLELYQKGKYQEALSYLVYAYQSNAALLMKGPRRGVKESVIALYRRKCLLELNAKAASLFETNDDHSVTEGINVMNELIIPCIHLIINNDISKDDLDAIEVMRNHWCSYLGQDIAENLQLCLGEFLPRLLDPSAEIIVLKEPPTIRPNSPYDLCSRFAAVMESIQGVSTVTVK

[7] = system: HGC-27 cells; assay: EdU incorporation assay; type: cell-based, human
[8] = system: HGC-27 cells; assay: Colony formation, HGC-27; type: cell-based, human; details: HGC-27, 0.75, 1.5 and 3.0 μmol/L, 8 days
[9] = biological target: T2, USP28 (Homo sapiens, UniProt Q96RU2); assay: Bio-layer interferometry; type: binding
T2 sequence (Q96RU2 1-700): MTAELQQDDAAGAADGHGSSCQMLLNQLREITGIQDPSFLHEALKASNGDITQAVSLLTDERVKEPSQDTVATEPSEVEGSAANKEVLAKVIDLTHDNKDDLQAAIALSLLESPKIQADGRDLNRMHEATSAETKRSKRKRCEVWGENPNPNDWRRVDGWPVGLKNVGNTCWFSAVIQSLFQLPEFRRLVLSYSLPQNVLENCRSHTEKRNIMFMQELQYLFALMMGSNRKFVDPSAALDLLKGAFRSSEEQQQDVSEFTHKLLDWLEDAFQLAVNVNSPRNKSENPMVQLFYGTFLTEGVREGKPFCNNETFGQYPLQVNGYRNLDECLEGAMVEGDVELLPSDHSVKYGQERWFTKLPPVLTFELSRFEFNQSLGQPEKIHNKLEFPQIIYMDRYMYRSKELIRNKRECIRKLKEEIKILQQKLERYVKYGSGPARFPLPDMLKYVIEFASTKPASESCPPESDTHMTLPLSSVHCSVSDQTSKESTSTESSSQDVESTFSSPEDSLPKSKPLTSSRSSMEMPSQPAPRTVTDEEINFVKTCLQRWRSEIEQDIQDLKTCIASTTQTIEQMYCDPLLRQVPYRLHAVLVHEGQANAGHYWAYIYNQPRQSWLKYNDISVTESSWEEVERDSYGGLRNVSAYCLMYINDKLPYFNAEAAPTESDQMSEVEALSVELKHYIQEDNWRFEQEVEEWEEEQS

[10] = system: HGC-27 cells; assay: MTT cell viability assay, HGC-27; details: Homo sapiens, HGC-27, 72 h, read-out: IC50 cell viability HGC-27
[11] = system: MGC-803 cells; assay: Wound healing assay, MGC-803; type: cell-based, human; details: MGC-803, 48 h
[12] = biological target: T3, USP28 in MGC-803 cells (Homo sapiens, UniProt Q96RU2); assay: Cellular thermal shift target engagement assay, MGC-803; type: cell-based; details: MGC-803, 0.75 μmol/L, 3 h, 60 °C
T3 sequence (Q96RU2 1-1077): T1 sequence (Q96RU2 1-1077)

[13] = biological target: T2, USP28; assay: biochemical; type: biochemical; details: read-out: Inhibition rate at 12.5 μmol/L (%)
[14] = system: USP28, LSD1 and total c-Myc in HGC-27 cells; assay: Western blotting of USP28, LSD1 and total c-Myc; type: cell-based, human; details: HGC-27, 3 h, Western blotting
[15] = system: HGC-27 cells; assay: Transwell migration assay, HGC-27; type: cell-based, human; details: HGC-27, 48 h
[16] = system: HGC-27 cells; assay: Wound healing assay, HGC-27; type: cell-based, human; details: HGC-27, 48 h
[17] = system: MGC-803 cells; assay: Transwell migration assay, MGC-803; type: cell-based, human; details: MGC-803, 48 h
[18] = system: GES-1 cells; assay: cells; details: Homo sapiens, GES1, 72 h, read-out: IC50 cell viability GES-1
[19] = system: MGC-803 cells; assay: Colony formation, MGC-803; type: cell-based, human; details: MGC-803, 0.75, 1.5 and 3.0 μmol/L, 8 days
[20] = system: MKN45 cells; assay: cells; details: Homo sapiens, MKN-45, 72 h, read-out: IC50 cell viability MKN45

USP7, sequence (Q93009 whole entry, species assumed): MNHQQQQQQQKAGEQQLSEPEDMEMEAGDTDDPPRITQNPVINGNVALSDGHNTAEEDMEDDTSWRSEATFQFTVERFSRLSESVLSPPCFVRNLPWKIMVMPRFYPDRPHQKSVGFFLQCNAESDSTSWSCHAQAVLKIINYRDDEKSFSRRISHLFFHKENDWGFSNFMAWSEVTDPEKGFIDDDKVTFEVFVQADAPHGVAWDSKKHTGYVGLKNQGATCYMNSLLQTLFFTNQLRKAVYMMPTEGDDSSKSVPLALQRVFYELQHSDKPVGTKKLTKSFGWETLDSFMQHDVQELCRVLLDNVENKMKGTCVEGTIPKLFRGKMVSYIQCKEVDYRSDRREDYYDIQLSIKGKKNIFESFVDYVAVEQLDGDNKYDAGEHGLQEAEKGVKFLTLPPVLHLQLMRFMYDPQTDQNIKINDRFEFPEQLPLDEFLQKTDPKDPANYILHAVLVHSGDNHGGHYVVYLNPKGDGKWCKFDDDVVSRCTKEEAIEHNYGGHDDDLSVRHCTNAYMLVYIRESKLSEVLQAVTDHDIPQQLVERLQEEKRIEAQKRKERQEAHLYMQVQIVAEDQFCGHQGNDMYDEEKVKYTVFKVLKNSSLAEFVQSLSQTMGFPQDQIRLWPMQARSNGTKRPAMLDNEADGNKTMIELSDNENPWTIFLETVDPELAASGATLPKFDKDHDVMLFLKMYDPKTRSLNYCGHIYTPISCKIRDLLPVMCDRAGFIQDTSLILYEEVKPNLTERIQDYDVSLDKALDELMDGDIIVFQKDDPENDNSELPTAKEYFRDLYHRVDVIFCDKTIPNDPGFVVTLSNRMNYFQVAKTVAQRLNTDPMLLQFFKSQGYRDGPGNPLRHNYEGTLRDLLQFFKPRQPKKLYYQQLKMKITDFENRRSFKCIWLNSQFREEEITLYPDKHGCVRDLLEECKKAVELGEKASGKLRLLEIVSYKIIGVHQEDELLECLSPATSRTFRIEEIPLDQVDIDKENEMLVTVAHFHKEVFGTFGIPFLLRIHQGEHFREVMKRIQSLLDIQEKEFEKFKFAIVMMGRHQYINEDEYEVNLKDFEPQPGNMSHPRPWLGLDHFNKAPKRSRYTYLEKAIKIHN

CCCSc1nc(NCCN)c2nnn(Cc3ccc(Cl)cc3)c2n1 [Compound 19, N^1-(3-(4-Chlorobenzyl)-5-(propylthio)-3H-[1,2,3]triazolo[4,5-d]pyrimidin-7-yl)ethane-1,2-diamine]
IC50 [1]: > 100 µM | percentage of cells in S phase ([2]; 0.18 μmol/L): 36.02% | percentage of cells in S phase ([2]; 0.37 μmol/L): 38.58% | percentage of cells in S phase ([2]; 0.75 μmol/L): 39.27% | percentage of cells in S phase ([2]; 1.5 μmol/L): 42.98% | IC50 [3]: > 100 µM | apoptotic rate (Annexin V-FITC/PI, Q2) ([4]; HGC-27, 0.18 μmol/L): 6.5% | apoptotic rate (Annexin V-FITC/PI, Q2) ([4]; HGC-27, 0.37 μmol/L): 9.3% | apoptotic rate (Annexin V-FITC/PI, Q2) ([4]; HGC-27, 0.75 μmol/L): 10.5% | apoptotic rate (Annexin V-FITC/PI, Q2) ([4]; HGC-27, 1.5 μmol/L): 21.2% | IC50 [5]: 4.95 ± 0.33 µM | USP28 thermal stabilization (CTSA) [6]: stabilized | DNA proliferation (EdU) [7]: suppressed DNA proliferation | colony formation [8]: dose-dependently inhibited colony formation | Kd [9]: 0.04 µM | IC50 [10]: 0.61 ± 0.45 µM | wound healing [11]: apparently suppressed the wound healing | USP28 thermal stabilization (CTSA) [12]: stabilized | inhibition at 12.5 µM [13]: 90% | USP28 expression [14]: decreased in a dose-dependent manner | protein levels of LSD1 and total c-Myc [14]: decreased correspondingly | cell migration (Transwell) [15]: apparently inhibited cell migration | wound healing [16]: apparently suppressed the wound healing | cell migration (Transwell) [17]: apparently inhibited cell migration | IC50 [18]: 9.19 ± 1.15 µM | colony formation [19]: dose-dependently inhibited colony formation | IC50 [20]: 1.49 ± 0.98 µM

Source: article PMC7488365 (Acta Pharmaceutica Sinica. B, 2019)
